Test results from ChEMBL document CHEMBL3045070, “Identification of in vitro inhibitors of Mycobacterium tuberculosis Lysine -aminotransferase by pharmacophore mapping and three-dimensional flexible searches” (Med Chem Res, 2008).
The source made the active and inactive calls. The calls are words filed in the database; no cut-off is given here.

How the values were obtained:
[1] = molecular target: T1, L-lysine-epsilon aminotransferase (Mycobacterium tuberculosis) (UniProt P9WQ77); assay: Inhibition of Mycobacterium tuberculosis lysine-epsilon aminotransferase at 600 uM
T1 sequence (whole entry): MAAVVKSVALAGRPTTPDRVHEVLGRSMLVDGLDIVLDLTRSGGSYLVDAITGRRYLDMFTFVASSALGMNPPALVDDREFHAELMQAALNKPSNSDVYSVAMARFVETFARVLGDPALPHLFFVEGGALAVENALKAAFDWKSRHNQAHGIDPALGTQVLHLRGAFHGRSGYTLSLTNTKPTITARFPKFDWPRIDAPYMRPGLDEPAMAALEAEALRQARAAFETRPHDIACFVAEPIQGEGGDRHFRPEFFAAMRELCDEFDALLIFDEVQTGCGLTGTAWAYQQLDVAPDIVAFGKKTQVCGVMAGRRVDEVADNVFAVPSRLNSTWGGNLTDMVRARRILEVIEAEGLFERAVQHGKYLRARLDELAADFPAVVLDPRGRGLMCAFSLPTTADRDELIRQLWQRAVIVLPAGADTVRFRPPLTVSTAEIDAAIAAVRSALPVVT

[2] = molecular target: T1, L-lysine-epsilon aminotransferase (Mycobacterium tuberculosis); assay: Inhibition of Mycobacterium tuberculosis lysine-epsilon aminotransferase at 400 uM

Q: For COc1ccc(CC(=O)NCC2c3[nH]c4ccccc4c3CC3C(=O)N(CCc4ccc(OC)c(OC)c4)C(=O)N32)cc1 (configuration not stated), which inhibition [1] is on record?
A: Its inhibition is 60%.

Q: Which inhibition [2] does the source give for CN(CC(O)c1ccccc1)CC1CCCCN1C (configuration not stated) here?
A: The inhibition was “Active”.
